Like-named read-outs stand apart in the source and are kept apart here.
Key:
Type in all cases: biochemical
[1] = target: T1, DYRK1A (Homo sapiens, UniProt Q13627); test: Radiometric protein kinase assay (33PanQinase Activity Assay), DYRK1A; conditions: for Selectivity Class DYRK1A vs. CLK1: ratio of IC50 on CLK1 over IC50 on DYRK1A; for Selectivity Class DYRK1A vs. DYRK1B: ratio of IC50 on DYRK1B over IC50 on DYRK1A
T1 construct: GST-fusion or His-tag (not specified per kinase); purchased ProQinase GmbH; host or cells: Sf9 insect cells or E. coli (not specified per kinase)
Summary of the method: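 Recombinant human kinase, expressed in Sf9 or E. coli, in a radiometric [γ-33P]-ATP assay at 30 °C for 60 min. Compounds tested at 10 concentrations from 10 μM to 30 nM, 1% DMSO final. 33Pi incorporation measured by scintillation counting; IC50 from dose-response curves.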

[2] = target: T2, CLK1 (Homo sapiens, UniProt P49759); test: Radiometric protein kinase assay (33PanQinase Activity Assay), CLK1
T2 construct: GST-fusion or His-tag (not specified per kinase); purchased ProQinase GmbH; host or cells: Sf9 insect cells or E. coli (not specified per kinase)
T2 sequence (P49759 whole entry, the tested form may be a part): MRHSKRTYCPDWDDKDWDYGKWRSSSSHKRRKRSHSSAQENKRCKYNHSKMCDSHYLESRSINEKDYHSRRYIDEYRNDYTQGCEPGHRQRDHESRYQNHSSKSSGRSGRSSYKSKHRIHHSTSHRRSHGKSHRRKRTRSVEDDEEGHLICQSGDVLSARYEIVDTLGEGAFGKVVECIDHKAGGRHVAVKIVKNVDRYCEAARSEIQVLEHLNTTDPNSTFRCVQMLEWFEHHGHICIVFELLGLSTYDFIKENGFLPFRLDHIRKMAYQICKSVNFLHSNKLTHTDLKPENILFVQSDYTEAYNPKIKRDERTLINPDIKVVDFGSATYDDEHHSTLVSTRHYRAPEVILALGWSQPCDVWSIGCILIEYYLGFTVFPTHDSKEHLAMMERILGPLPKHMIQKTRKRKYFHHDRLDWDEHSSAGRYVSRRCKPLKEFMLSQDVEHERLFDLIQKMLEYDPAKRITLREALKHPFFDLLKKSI
Summary of the method: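 Semi-log compound dilutions, ten final concentrations between 10 μM and 30 nM, went into reactions containing [γ-33P]-ATP and recombinant human enzyme with substrate. After 60 minutes at 30 °C the reaction was stopped with phosphoric acid, and radiolabel incorporation gave IC50 values.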

[3] = target: T3, CLK4 (Homo sapiens, UniProt Q9HAZ1); test: Radiometric protein kinase assay (33PanQinase Activity Assay), CLK4; conditions: read-out: IC50 on CLK4 (most potent CLK4 inhibitors)
T3 construct: GST-fusion or His-tag (not specified per kinase); purchased ProQinase GmbH; host or cells: Sf9 insect cells or E. coli (not specified per kinase)
T3 sequence (Q9HAZ1 whole entry, the tested form may be a part): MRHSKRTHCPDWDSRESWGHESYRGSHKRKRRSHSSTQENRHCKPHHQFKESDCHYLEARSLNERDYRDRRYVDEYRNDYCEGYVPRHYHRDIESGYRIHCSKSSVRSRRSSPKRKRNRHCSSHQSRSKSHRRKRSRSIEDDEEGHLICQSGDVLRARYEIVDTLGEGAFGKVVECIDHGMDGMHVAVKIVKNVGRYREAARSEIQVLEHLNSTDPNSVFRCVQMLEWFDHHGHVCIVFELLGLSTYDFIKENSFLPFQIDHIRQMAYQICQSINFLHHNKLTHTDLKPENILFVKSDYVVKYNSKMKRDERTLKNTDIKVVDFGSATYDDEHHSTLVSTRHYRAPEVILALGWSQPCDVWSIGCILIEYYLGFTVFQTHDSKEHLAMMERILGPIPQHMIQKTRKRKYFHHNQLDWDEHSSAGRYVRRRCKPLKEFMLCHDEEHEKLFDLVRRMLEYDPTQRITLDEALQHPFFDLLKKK
Method: (§1) Assays were performed by ProQinase GmbH (Engesserstr. 4, D-79108 Freiburg, Germany. www.proqinase.com). The IC50 profile of all compounds was determined using 12 protein kinases (CDK2/cyclin E, CK1ε, CLK1, 2, 3, 4, DYRK1A, 1B, 2, 3, 4, GSK3β).
(§2) The compounds were provided as […] in 100% DMSO. Prior to testing, the 1 μM stock solutions were subjected to a serial, semi-logarithmic dilution using 100% DMSO as a solvent. […] In the process, 90 μl H2O were added to each well of each compound dilution plate. To minimize potential precipitation, the H2O was added to each plate only a few minutes before the transfer of the compound solutions into the assay plates. The plate was shaken thoroughly, resulting in a compound dilution plate/10% DMSO.
(§3) For the assays (see below), 5 μL solution from each well of the compound dilution plates/10% DMSO were transferred into the assay plates. The final volume of the assay was 50 μL. All compounds were tested at 10 final assay concentrations in the range from 10 μM to 30 nM. The final DMSO concentration in the reaction cocktails was 1% in all cases.
(§4) All protein kinases provided by ProQinase were expressed in Sf9 insect cells or in E. coli as recombinant GST-fusion proteins or His-tagged proteins, either as full-length or enzymatically active fragments. All kinases were produced from human cDNAs and purified by either GSH-affinity chromatography or immobilized metal. Affinity tags were removed from a number of kinases during purification. The purity of the protein kinases was examined by SDS-PAGE/Coomassie staining, the identity was checked by mass spectroscopy.
(§5) A radiometric protein kinase assay (33PanQinase® Activity Assay) was used for measuring the kinase activity of the 12 protein kinases. All kinase assays were performed in 96-well FlashPlates™ from PerkinElmer (Boston, MA, USA) in a 50 μL reaction volume. The reaction cocktail was pipetted in four steps in the following order: • 25 μL of assay buffer (standard buffer/[γ-^33P]-ATP), • 10 μL of ATP solution (in H2O), • 5 μL of test compound (in 10% DMSO), • 10 μL of enzyme/substrate mixture.
(§6) The reaction cocktails were incubated at 30° C. for 60 minutes. The reaction was stopped with 50 μL of 2% (v/v) H3PO4, plates were aspirated and washed two times with 200 μL 0.9% (w/v) NaCl. Incorporation of ^33Pi was determined with a microplate scintillation counter (Microbeta, Wallac). The IC50 values for all compounds were calculated from the dose response curves
(§7) As a parameter for assay quality, the Z′-factor (Zhang et al., J. Biomol. Screen. 2: 67-73, 1999) for the low and high controls of each assay plate (n=8) was used. ProQinase's criterion for repetition of an assay plate is a Z′-factor below 0.4 (Iversen et al., J. Biomol. Screen. 3: 247-252, 2006).

[4] = target: T4, DYRK3 (Homo sapiens, UniProt O43781); test: Radiometric protein kinase assay (33PanQinase Activity Assay), DYRK3; conditions: read-out: IC50 on DYRK3 (most potent DYRK3 inhibitors)
T4 construct: GST-fusion or His-tag (not specified per kinase); purchased ProQinase GmbH; host or cells: Sf9 insect cells or E. coli (not specified per kinase)
T4 sequence (O43781 1-588): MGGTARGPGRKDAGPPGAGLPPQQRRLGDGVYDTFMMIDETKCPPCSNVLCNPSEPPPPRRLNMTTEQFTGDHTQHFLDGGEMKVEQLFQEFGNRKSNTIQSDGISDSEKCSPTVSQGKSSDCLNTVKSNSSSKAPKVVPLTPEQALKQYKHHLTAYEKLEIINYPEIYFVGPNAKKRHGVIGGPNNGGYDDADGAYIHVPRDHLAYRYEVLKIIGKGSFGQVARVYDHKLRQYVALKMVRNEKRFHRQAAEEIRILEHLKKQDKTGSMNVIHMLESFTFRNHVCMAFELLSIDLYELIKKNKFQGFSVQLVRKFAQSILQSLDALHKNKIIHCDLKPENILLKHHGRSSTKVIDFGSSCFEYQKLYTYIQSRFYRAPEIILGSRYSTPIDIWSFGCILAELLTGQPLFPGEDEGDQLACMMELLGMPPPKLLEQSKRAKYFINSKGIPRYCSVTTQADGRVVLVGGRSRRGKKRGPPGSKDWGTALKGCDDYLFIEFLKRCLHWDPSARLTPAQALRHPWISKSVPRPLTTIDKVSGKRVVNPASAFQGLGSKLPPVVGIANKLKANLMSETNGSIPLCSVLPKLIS
Method: as §1, §2, §3, §4, §5, §6, §7

[5] = target: T5, DYRK2 (Homo sapiens, UniProt Q92630); test: Radiometric protein kinase assay (33PanQinase Activity Assay), DYRK2; conditions: read-out: IC50 on DYRK2 (most potent DYRK2 inhibitors)
T5 construct: GST-fusion or His-tag (not specified per kinase); purchased ProQinase GmbH; host or cells: Sf9 insect cells or E. coli (not specified per kinase)
T5 sequence (Q92630 1-601): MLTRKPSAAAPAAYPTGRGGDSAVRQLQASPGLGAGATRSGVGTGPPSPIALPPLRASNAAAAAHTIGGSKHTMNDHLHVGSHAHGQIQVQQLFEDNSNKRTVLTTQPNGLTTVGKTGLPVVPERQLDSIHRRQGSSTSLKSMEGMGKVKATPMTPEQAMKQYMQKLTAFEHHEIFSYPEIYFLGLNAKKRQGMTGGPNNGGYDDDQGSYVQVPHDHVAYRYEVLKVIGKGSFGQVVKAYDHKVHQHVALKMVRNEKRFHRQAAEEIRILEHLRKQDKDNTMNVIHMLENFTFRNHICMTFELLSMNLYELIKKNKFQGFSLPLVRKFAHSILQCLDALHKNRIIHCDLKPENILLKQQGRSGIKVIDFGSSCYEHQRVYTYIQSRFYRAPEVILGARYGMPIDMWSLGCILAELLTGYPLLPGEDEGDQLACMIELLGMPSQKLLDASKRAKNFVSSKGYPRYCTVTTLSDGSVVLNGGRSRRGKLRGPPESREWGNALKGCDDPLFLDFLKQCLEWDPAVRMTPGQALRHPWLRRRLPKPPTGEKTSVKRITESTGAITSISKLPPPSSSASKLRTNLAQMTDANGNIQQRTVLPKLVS
Method: as §1, §2, §3, §4, §5, §6, §7

[6] = target: T6, CLK3 (Homo sapiens, UniProt P49761); test: Radiometric protein kinase assay (33PanQinase Activity Assay), CLK3; conditions: read-out: IC50 on CLK3 (most potent CLK3 inhibitors)
T6 construct: GST-fusion or His-tag (not specified per kinase); purchased ProQinase GmbH; host or cells: Sf9 insect cells or E. coli (not specified per kinase)
T6 sequence (P49761 whole entry, the tested form may be a part): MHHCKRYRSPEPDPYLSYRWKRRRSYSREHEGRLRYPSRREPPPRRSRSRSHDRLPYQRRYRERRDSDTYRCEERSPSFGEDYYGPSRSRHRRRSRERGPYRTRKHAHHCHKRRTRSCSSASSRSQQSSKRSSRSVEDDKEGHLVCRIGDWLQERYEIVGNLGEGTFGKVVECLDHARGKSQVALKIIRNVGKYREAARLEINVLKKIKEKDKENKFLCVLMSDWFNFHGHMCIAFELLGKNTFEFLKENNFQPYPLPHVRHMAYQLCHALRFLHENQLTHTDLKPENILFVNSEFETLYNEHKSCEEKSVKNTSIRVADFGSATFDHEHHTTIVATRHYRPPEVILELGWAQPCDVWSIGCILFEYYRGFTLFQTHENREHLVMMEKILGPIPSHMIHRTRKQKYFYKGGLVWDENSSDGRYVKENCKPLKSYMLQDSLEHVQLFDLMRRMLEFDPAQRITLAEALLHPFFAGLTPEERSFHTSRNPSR
Method: as §1, §2, §3, §4, §5, §6, §7

[7] = target: T7, DYRK1B (Homo sapiens, UniProt Q9Y463); test: Radiometric protein kinase assay (33PanQinase Activity Assay), DYRK1B; conditions: read-out: IC50 on DYRK1B (most potent DYRK1B inhibitors)
T7 construct: GST-fusion or His-tag (not specified per kinase); purchased ProQinase GmbH; host or cells: Sf9 insect cells or E. coli (not specified per kinase)
T7 sequence (Q9Y463 whole entry, the tested form may be a part): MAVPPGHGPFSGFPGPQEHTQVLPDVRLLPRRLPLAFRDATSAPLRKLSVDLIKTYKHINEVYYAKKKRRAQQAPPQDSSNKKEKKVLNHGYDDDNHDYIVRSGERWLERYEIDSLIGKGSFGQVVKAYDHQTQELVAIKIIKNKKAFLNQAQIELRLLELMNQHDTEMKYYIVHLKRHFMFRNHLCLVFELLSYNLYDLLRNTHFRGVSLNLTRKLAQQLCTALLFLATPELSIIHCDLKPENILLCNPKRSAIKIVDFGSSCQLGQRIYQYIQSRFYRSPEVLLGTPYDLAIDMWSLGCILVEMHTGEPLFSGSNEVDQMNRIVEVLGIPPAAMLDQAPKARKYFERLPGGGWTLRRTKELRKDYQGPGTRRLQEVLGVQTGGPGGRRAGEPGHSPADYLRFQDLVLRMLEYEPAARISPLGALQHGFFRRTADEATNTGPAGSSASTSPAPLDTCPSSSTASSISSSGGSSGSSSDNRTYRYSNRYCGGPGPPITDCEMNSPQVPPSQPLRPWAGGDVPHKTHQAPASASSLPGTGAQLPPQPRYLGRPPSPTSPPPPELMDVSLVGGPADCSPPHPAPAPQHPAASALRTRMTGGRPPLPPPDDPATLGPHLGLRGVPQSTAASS
Method: as §1, §2, §3, §4, §5, §6, §7

[8] = target: T8, CLK2 (Homo sapiens, UniProt P49760); test: Radiometric protein kinase assay (33PanQinase Activity Assay), CLK2; conditions: read-out: IC50 on CLK2 (most potent CLK2 inhibitors)
T8 construct: GST-fusion or His-tag (not specified per kinase); purchased ProQinase GmbH; host or cells: Sf9 insect cells or E. coli (not specified per kinase)
T8 sequence (P49760 whole entry, the tested form may be a part): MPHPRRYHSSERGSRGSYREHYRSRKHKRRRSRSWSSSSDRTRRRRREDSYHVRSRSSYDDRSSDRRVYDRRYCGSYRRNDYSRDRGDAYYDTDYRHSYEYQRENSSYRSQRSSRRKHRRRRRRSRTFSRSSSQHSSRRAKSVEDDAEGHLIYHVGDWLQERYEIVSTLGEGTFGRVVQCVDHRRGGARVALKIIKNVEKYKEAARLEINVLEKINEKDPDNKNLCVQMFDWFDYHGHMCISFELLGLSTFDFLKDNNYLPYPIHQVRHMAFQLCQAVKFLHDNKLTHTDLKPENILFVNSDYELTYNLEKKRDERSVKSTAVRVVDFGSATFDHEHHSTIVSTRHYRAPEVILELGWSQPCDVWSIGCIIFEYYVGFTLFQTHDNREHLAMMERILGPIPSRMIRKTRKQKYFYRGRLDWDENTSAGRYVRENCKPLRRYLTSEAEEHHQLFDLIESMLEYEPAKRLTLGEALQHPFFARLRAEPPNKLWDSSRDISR
Method: as §1, §2, §3, §4, §5, §6, §7

[9] = IC50 class A to E, read-out: Potency Class DYRK1A
[10] = class by IC50 on DYRK1A, from dose-response curves, read-out: Potency Class DYRK1A
[11] = read-out: IC50 on DYRK1A (most potent DYRK1A inhibitors)
[12] = IC50 class A to E, read-out: Potency Class CLK1
[13] = class by IC50 on CLK1, from dose-response curves, read-out: Potency Class CLK1

Structure (SMILES)	IC50 [1, 9]	IC50 [1, 10]	Selectivity Class DYRK1A vs. CLK1 [1]	Selectivity Class DYRK1A vs. DYRK1B [1]	IC50 [1, 11]	IC50 [2, 12]	IC50 [2, 13]	IC50 [3]	IC50 [4]	IC50 [5]	IC50 [6]	IC50 ([2]; read-out: IC50 on CLK1 (most potent CLK1 inhibitors))	IC50 [7]	IC50 [8]
O=C1NC(NC23CC4CC(CC2C4)C3)=N/C1=C\c1ccc2ncccc2c1 [Compound 48, (4Z)-2-(3-noradamantylamino)-4-(6-quinolylmethylene)-1H-imidazol-5-one]	5 to 10 nM	5 to 10 nM	II (ratio between 2 and 10 fold)	II (ratio between 2 and 10 fold)	≤ 10 nM	10 to 25 nM	10 to 25 nM	≤ 10 nM	≤ 250 nM	≤ 250 nM	–	–	–	–
O=C1NC(NC2CCCCCC2)=N/C1=C\c1ccc2ncccc2n1 [Compound 80, (4Z)-2-(cycloheptylamino)-4-(1,5-naphthyridin-2-ylmethylene)-1H-imidazol-5-one]	–	10 to 25 nM	III (ratio between 0.5 and 2 fold)	II (ratio between 2 and 10 fold)	–	–	25 to 50 nM	–	–	–	≤ 500 nM	–	–	–
O=C1NC(NC23CC4CC(CC(F)(C4)C2)C3)=N/C1=C\c1ccc2nccnc2c1 [Compound 20, (4Z)-2-[(3-fluoro-1-adamantyl)amino]-4-(quinoxalin-6-ylmethylene)-1H-imidazol-5-one]	≤ 5 nM	< 5 nM	II (ratio between 2 and 10 fold)	III (ratio between 0.5 and 2 fold)	≤ 10 nM	10 to 25 nM	10 to 25 nM	≤ 10 nM	≤ 250 nM	≤ 250 nM	–	≤ 10 nM	≤ 10 nM	≤ 100 nM
COC[C@H](NC1=N/C(=C\c2ccc3ncncc3c2)C(=O)N1)c1ccccc1 [Compound 69, (4Z)-2-[[(1R)-2-methoxy-1-phenyl-ethyl]amino]-4-(quinazolin-6-ylmethylene)-1H-imidazol-5-one]	≤ 5 nM	< 5 nM	II (ratio between 2 and 10 fold)	II (ratio between 2 and 10 fold)	≤ 10 nM	10 to 25 nM	10 to 25 nM	≤ 10 nM	≤ 250 nM	≤ 250 nM	–	–	≤ 10 nM	≤ 100 nM
CN1C(=O)/C(=C/c2ccc3cnccc3c2)N=C1NC1CCCCCC1 [Compound 87, (5Z)-2-(Cycloheptylamino)-3-methyl-5-(isoquinolin-6-ylmethylene)imidazol-4-one]	–	> 50 nM	IV (ratio between 0.1 and 0.5 fold)	IV (ratio between 0.1 and 0.5 fold)	–	–	> 50 nM	–	≤ 250 nM	≤ 250 nM	–	–	–	–
COC12CC3CC(CC(NC4=N/C(=C\c5ccc6nccnc6c5)C(=O)N4)(C3)C1)C2 [Compound 19, (4Z)-2-[(3-methoxy-1-adamantyl)amino]-4-(quinoxalin-6-ylmethylene)-1H-imidazol-5-one]	≤ 5 nM	< 5 nM	II (ratio between 2 and 10 fold)	II (ratio between 2 and 10 fold)	≤ 10 nM	10 to 25 nM	10 to 25 nM	≤ 10 nM	–	≤ 250 nM	–	–	≤ 10 nM	≤ 100 nM
O=C1NC(NC23CC4CC(CC(O)(C4)C2)C3)=N/C1=C\c1ccc2nccnc2c1 [Compound 18, (4Z)-2-[(3-hydroxy-1-adamantyl)amino]-4-(quinoxalin-6-ylmethylene)-1H-imidazol-5-one]	≤ 5 nM	< 5 nM	II (ratio between 2 and 10 fold)	II (ratio between 2 and 10 fold)	≤ 10 nM	10 to 25 nM	10 to 25 nM	≤ 10 nM	–	–	–	–	≤ 10 nM	–
